Source: ChEMBL document CHEMBL1201862, “PubChem BioAssay data set” (2004)
Where “and” joins values, the source holds several entries; their conditions need not be identical. Identical values can stand only once. Calls of active or inactive are those of the source.

Columns and labels:
[1] = target: Glyceraldehyde-3-phosphate dehydrogenase (Homo sapiens, UniProt P04406)
[2] = target: T1, Dual specificity protein phosphatase 6 (Rattus norvegicus, UniProt Q64346)
T1 sequence (Q64346 whole entry): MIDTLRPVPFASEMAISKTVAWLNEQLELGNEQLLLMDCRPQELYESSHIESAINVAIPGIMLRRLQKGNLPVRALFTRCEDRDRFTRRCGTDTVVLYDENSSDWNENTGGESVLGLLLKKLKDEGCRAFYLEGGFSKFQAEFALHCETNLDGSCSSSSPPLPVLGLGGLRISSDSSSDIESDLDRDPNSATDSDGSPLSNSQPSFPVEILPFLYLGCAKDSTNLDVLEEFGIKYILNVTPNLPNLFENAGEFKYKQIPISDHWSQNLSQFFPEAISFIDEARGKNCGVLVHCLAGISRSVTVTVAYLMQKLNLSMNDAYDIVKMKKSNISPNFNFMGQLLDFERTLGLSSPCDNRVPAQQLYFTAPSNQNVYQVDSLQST

[3] = target: T2, Tyrosine-protein phosphatase non-receptor type 7 (Homo sapiens, UniProt P35236); type: functional
T2 sequence (P35236 whole entry): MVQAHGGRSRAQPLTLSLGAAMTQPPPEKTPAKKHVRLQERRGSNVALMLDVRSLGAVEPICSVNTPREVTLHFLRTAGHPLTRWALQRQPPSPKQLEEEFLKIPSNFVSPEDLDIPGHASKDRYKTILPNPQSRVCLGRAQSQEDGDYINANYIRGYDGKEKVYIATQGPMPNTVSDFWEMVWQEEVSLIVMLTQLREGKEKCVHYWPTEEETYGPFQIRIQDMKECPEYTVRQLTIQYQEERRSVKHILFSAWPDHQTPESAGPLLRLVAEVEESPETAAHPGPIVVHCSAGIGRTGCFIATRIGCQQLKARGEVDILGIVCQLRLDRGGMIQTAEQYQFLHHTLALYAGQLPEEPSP

[4] = target: T1, Dual specificity protein phosphatase 6; type: functional
[5] = target: T3, Estrogen receptor beta (Homo sapiens, UniProt Q92731); test: ERβ–SRC-3 coactivator interaction inhibitors, confirmation, orthogonal assay, biochemical, ELISA, streptavidin-HRP readout (AID 1060)
T3 sequence (Q92731 whole entry): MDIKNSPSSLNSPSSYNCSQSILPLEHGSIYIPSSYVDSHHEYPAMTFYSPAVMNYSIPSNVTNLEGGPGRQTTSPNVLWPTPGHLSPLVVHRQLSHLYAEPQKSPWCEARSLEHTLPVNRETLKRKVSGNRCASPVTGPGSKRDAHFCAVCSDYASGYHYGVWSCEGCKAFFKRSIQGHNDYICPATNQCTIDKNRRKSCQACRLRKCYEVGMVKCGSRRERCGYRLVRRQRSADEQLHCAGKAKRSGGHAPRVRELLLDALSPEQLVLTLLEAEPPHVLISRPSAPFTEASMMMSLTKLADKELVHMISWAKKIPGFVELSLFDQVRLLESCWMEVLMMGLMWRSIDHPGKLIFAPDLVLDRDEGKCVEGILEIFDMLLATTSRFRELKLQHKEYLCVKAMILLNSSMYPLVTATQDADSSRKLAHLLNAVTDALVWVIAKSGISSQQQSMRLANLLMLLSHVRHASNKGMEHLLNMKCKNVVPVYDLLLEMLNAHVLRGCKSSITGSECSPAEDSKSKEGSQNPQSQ

[6] = target: T4, Delta-type opioid receptor (Homo sapiens, UniProt P41143); test: HTS Image-Based Screen for Agonists of the DOR Receptor. [Related pubchem assays (depositor defined):AID1777, AID1786, AID2133]; type: functional
T4 sequence (P41143 whole entry): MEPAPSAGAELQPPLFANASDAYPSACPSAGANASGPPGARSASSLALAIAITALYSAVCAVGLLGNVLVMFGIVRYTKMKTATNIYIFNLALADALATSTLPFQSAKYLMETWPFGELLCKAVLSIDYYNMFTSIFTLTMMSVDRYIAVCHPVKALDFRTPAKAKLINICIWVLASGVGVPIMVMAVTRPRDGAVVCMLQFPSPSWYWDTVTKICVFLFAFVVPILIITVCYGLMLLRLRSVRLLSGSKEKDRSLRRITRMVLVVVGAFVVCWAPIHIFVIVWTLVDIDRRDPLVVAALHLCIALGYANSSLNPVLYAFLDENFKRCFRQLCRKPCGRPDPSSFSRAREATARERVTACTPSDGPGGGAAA

[7] = target: Mu-type opioid receptor (Homo sapiens, UniProt P35372); test: HTS Image-Based Screen for Agonists of the MOR Receptor. [Related pubchem assays (depositor defined):AID1777, AID1785, AID1786, AID2133]; type: functional;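 further: imaging of beta-arrestin GFP recruitment into spots after receptor activation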
Sequence of Mu-type opioid receptor (P35372 whole entry): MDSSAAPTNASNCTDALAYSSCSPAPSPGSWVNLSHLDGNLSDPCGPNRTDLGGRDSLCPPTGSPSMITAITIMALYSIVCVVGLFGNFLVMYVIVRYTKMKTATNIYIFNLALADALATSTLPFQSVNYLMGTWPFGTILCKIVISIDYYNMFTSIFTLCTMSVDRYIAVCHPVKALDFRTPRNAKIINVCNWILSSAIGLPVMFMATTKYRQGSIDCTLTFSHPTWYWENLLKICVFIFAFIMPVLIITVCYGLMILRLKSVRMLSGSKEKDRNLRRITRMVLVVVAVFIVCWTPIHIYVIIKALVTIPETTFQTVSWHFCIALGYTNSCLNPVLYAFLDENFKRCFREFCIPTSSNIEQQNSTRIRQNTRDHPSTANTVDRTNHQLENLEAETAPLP

[8] = target: T5, Kappa-type opioid receptor (Homo sapiens, UniProt P41145); type: functional
T5 sequence (P41145 whole entry): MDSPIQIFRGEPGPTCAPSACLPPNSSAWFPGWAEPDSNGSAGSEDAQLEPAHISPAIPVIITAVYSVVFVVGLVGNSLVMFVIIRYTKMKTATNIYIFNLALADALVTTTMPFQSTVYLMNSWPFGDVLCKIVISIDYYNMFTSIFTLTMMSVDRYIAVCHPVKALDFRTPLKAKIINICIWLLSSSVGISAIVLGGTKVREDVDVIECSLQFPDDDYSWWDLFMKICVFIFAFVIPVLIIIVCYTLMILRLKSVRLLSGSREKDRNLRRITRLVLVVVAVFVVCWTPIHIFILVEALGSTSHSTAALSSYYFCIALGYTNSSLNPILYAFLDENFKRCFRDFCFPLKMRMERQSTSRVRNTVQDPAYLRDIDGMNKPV

[9] = target: T5, Kappa-type opioid receptor; type: functional; remark: listed apart in the source
[10] = target: T3, Estrogen receptor beta
[11] = target: T4, Delta-type opioid receptor; test: HTS Image-Based Screen for Antagonists of the DOR Receptor. [Related pubchem assays (depositor defined):AID1777, AID1785, AID1786, AID2133]; type: functional
[12] = target: Estrogen receptor (Homo sapiens, UniProt P03372);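 further: potency for inhibiting coactivator peptide recruitment to the receptor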
Sequence of Estrogen receptor (P03372 whole entry): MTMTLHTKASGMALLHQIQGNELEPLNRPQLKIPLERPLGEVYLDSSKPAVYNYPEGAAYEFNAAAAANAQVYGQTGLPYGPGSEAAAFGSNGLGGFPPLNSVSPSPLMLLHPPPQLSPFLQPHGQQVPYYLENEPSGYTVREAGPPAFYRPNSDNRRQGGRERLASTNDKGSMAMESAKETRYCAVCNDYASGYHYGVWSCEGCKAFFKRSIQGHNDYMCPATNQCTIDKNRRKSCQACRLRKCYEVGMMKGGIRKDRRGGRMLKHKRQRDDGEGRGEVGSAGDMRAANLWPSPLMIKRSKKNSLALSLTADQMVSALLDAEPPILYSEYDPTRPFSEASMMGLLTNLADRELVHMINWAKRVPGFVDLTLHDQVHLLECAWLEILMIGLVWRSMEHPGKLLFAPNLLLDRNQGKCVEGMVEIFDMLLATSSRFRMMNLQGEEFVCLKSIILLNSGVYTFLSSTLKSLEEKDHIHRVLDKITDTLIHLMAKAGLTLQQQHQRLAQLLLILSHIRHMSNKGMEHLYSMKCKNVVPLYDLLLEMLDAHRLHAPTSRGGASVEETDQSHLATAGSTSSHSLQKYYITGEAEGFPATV

[13] = target: Caspase-7 (Homo sapiens, UniProt P55210); test: procaspase-7 activators, dose response, dual procaspase-3/-7 activator project, biochemical, absorbance, human (AID 504330)
[14] = target: T6, Caspase-3 (Homo sapiens, UniProt P42574); test: procaspase-3 activation potency of dual hits, dose response, counter-screen for dual procaspase-3/7 activator project, biochemical, absorbance, PC-3 D3A mutant (AID 504328)
T6 sequence (P42574 whole entry): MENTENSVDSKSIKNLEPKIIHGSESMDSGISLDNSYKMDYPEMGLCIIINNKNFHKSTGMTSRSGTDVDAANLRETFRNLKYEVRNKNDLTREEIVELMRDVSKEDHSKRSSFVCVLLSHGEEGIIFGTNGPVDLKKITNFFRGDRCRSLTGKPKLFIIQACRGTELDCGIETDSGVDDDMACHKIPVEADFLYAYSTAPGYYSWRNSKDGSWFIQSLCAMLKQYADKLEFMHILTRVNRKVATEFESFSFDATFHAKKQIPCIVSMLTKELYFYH

[15] = growth suppression of beta-catenin-knockout colon cells, dose response, cell-based, HCT116, human colon tumor (AID 1045); type: functional;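 further: HCT116 colon tumor cells with beta catenin knocked out; cells exposed to compound for 60 hours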
[16] = A Cell Based Secondary Assay To Explore Cytotoxicity of Compounds that Sensitize Mycobacterium Tuberculosis to Beta-Lactam Antibiotics.; type: functional
[17] = growth suppression of PTEN-null colon cells, dose response, cell-based, HCT116 PTEN knockout (AID 1047); type: functional;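 further: HCT116 colon tumor cells with PTEN knocked out; cells exposed to compound for 60 hours before readout; potency for loss of cell viability measured by luminescence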
[18] = target: T7, Coagulation factor XII (Homo sapiens, UniProt P00748); type: functional;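 further: activated factor XIIa alpha cleaving a fluorogenic AMC peptide substrate; inhibitor potency from loss of enzyme activity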
T7 sequence (P00748 whole entry): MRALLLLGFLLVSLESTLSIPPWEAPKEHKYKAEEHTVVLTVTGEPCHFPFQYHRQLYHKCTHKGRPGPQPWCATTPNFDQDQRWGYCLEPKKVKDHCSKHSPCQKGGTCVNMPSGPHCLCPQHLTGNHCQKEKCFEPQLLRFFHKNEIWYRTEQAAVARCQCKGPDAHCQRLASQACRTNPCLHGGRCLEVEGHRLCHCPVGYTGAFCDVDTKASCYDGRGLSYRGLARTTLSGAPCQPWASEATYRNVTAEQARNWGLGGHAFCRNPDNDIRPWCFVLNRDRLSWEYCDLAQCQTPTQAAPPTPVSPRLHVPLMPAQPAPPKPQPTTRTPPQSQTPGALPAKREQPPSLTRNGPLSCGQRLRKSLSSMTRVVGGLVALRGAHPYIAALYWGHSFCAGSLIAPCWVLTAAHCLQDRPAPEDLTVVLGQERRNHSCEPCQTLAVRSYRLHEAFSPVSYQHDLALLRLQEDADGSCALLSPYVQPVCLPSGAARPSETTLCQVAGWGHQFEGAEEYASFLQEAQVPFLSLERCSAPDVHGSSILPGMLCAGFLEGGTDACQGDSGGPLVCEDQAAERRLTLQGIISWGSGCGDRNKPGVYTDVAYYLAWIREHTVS

[19] = target: T8, Carboxy-terminal domain RNA polymerase II polypeptide A small phosphatase 1 (Homo sapiens, UniProt Q9GZU7); test: inhibitors of CTDSP1, concentration-response testing, biochemical assay, absorbance-based, actives from ultra-high-throughput screening (AID 540297); type: functional
T8 sequence (Q9GZU7 whole entry): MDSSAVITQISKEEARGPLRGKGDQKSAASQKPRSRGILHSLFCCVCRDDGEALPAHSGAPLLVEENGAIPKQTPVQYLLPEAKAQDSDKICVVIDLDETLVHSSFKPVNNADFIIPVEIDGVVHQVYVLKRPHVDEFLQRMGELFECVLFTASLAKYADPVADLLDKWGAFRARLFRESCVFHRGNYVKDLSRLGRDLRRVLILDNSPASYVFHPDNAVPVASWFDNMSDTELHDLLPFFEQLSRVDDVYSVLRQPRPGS

[20] = target: Induced myeloid leukemia cell differentiation protein Mcl-1 (Homo sapiens, UniProt Q07820); type: functional
Sequence of Induced myeloid leukemia cell differentiation protein Mcl-1 (Q07820 whole entry): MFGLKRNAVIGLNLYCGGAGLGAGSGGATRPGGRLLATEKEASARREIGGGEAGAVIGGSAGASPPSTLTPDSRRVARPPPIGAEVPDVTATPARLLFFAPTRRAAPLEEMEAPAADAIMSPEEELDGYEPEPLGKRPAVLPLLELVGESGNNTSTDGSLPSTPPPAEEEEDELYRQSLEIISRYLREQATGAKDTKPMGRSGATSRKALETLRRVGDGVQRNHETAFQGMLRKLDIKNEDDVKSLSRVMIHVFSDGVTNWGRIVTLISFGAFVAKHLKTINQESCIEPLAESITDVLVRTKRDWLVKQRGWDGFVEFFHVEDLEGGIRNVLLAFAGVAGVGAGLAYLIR

[21] = target: Bcl-2-like protein 10 (Homo sapiens, UniProt Q9HD36); test: displacers of TR3 peptide from Bcl-B, primary screen, selectivity assay for Bfl-1 inhibitor project, biochemical, fluorescence polarization, FITC-TR3 peptide (AID 748);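 further: fluorescence polarization from a fluorescein-labelled TR3 peptide binding purified Bcl-B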
Sequence of Bcl-2-like protein 10 (Q9HD36 whole entry): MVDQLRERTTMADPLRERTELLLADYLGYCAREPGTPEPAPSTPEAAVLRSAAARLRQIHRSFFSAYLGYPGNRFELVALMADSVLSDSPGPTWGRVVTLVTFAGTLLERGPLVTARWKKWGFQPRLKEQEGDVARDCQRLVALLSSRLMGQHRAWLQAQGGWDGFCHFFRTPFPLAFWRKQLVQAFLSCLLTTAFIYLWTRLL

[22] = target: T9, Protein RecA (Mycobacterium tuberculosis, UniProt P9WHJ3); test: Fluorescence Cell-Free Homogeneous Dose Retest to Identify Inhibitors of RecA-Intein Splicing Activity. [Related pubchem assays (depositor defined):AID2097, AID2223, AID489010, AID492950]; type: functional
T9 sequence (P9WHJ3 whole entry): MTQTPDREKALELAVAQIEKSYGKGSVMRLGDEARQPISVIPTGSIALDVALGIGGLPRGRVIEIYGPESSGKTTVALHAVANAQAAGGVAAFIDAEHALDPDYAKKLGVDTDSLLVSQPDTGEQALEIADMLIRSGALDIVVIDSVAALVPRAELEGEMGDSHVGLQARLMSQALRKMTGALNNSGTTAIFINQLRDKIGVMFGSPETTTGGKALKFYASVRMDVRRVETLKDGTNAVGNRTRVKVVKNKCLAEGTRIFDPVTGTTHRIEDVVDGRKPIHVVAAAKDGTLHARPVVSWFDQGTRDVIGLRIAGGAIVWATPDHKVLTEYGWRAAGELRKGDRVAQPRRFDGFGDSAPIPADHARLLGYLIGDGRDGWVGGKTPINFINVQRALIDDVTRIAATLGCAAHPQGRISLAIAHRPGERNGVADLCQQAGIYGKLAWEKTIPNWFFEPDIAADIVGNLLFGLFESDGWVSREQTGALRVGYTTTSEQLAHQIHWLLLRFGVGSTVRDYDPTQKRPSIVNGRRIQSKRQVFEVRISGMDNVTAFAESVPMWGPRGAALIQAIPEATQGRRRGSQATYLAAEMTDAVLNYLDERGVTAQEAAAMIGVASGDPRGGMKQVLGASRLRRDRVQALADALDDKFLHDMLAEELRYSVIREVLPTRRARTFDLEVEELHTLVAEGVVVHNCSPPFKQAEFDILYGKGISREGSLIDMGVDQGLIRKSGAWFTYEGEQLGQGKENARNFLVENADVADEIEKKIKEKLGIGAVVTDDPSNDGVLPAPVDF

[23] = target: T10, Replicative DNA helicase DnaB (Mycobacterium tuberculosis, UniProt P9WMR3); test: DnaB intein splicing inhibitors, dose response, biochemical, cell-free fluorescence (AID 449749); type: functional
T10 sequence (P9WMR3 whole entry): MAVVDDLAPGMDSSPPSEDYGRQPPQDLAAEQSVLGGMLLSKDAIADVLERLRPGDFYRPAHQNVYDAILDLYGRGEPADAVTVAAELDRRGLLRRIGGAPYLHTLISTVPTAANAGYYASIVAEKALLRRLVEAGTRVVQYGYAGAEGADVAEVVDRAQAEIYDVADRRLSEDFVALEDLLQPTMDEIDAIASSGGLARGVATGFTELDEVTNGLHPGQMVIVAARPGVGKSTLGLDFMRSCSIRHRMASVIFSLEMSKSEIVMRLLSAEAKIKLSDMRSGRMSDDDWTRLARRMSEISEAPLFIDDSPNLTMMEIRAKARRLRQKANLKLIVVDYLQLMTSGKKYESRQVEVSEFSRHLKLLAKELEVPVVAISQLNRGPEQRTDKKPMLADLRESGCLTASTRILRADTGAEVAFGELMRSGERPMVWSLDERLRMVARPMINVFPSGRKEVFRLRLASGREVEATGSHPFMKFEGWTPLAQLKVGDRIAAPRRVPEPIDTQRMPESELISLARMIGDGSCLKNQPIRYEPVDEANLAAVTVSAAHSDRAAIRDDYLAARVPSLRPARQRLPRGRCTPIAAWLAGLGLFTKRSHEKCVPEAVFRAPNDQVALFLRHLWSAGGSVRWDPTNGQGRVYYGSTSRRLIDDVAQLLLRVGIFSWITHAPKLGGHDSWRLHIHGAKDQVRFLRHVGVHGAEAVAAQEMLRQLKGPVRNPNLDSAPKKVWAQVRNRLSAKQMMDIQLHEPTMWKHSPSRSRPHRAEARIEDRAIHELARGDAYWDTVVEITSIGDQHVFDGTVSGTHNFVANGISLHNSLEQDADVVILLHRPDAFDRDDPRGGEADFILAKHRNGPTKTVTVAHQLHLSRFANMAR

[24] = target: G-protein coupled receptor 35 (Homo sapiens, UniProt Q9HC97); test: GPR35 antagonists blocking zaprinast-driven arrestin recruitment, primary screen, imaging, U2OS, beta-arrestin-GFP, zaprinast agonist (AID 2058); type: functional;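 further: antagonist potency meaning inhibition of agonist-induced arrestin redistribution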
Sequence of G-protein coupled receptor 35 (Q9HC97 whole entry): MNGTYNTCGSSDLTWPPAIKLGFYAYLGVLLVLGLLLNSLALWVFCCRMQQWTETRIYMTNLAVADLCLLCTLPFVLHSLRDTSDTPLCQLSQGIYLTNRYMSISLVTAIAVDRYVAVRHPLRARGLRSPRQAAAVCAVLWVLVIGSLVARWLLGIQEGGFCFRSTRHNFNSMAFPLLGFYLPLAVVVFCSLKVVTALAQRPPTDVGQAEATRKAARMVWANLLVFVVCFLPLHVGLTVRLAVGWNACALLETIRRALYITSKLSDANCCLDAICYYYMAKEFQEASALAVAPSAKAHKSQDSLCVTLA

[25] = target: Melanin-concentrating hormone receptor 1 (Homo sapiens, UniProt Q99705); test: Late-stage fluorescence-based counterscreen for antagonists of the G-protein coupled receptor 7 (GPR7): cell-based dose response assay to identify antagonists of the melanin-concentrating hormone receptor 1 (MCHR1). [Related pubchem assays (depositor defined):AID1861, AID1880, AID1952, AID2148, AID2251, AID2257, AID485339]; type: functional;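 further: stimulated with 30 nM MCH peptide agonist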
[26] = target: Scavenger receptor class B member 1 (Mus musculus, UniProt Q61009); test: inhibitors of SR-BI mediated HDL lipid uptake, dose response, ldlA[mSR-BI] cells, fluorescence, cherry pick (AID 493194); type: functional, cell-based;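 further: cellular uptake of fluorescent DiI-labeled HDL measured as cell fluorescence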
Sequence of Scavenger receptor class B member 1 (Q61009 whole entry): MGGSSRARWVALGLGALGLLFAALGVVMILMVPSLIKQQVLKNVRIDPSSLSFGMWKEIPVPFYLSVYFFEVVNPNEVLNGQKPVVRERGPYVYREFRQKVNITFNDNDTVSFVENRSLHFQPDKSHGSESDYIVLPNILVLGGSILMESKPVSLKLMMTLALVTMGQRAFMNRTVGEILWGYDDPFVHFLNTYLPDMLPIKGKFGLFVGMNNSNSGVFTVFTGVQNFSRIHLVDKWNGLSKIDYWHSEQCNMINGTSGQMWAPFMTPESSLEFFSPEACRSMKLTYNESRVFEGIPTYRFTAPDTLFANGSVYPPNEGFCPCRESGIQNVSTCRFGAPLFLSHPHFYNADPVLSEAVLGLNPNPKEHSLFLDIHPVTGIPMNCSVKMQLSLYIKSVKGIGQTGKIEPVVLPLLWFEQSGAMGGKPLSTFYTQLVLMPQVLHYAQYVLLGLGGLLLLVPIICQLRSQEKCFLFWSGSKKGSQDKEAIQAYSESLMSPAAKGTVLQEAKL

[27] = system: Trypanosoma cruzi; test: growth inhibition of intracellular Trypanosoma cruzi, dose response, cell-based, plate reader, dry powder, set 3 (AID 493197); type: functional
[28] = target: T11, Eukaryotic translation initiation factor 2-alpha kinase 3 (Homo sapiens, UniProt Q9NZJ5); test: Dose response cell-based high-throughput screening assay to measure PERK inhibition. [Related pubchem assays: 1416 ]; type: functional
T11 sequence (Q9NZJ5 whole entry): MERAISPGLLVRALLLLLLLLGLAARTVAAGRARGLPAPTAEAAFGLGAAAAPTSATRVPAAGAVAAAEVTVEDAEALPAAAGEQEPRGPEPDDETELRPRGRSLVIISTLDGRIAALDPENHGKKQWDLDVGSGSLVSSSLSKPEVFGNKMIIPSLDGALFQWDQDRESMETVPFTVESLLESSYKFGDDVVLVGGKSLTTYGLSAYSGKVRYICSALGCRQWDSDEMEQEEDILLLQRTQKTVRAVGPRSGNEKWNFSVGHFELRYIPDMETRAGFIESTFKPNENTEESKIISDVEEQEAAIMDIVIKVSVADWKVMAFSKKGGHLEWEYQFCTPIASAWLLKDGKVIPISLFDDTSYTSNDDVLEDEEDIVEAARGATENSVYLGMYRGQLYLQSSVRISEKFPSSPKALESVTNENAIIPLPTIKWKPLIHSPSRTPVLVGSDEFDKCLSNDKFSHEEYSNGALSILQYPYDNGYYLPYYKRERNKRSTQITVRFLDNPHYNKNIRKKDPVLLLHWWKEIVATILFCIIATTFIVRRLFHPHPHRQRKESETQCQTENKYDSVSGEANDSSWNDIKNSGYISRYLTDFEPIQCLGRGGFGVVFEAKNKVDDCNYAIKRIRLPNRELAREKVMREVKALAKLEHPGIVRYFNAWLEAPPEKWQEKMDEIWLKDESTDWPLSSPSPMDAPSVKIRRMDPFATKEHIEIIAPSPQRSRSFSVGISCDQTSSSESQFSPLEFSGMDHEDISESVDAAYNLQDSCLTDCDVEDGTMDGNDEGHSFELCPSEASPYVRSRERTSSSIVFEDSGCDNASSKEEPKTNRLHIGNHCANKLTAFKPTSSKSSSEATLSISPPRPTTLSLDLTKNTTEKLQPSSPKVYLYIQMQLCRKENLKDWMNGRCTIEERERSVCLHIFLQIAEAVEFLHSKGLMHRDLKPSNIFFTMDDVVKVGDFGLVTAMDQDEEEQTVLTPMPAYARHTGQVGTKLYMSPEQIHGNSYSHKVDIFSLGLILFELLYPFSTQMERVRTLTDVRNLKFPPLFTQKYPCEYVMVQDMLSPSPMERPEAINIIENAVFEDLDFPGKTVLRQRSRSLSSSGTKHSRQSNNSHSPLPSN

[29] = target: T11, Eukaryotic translation initiation factor 2-alpha kinase 3; test: Counterscreen assay for PERK inhibitors: Dose response cell-based high throughput screening assay to measure inhibition of PERK at 6 hours. [Related pubchem assays: 1522, 1416 ]; type: functional

Compound: Cc1ccc(CC(=O)Nc2cc(C)on2)cc1
- IC50 [1]: 93.8 µM (active)
- IC50 [2]: > 100 µM (inactive)
- IC50 [3]: > 100 µM (not active)
- IC50 [4]: > 100 µM (inactive)

Compound: N#Cc1ccc(-c2cccnc2)nc1SCC(=O)Nc1sc2c(c1C#N)CCC2
- IC50 [5]: 3.69 µM (not active) and 149 nM (not active)
- EC50 [6]: > 32 µM (inactive)
- EC50 [7]: > 32 µM (inactive)
- EC50 [8]: > 35 µM
- EC50 [9]: 16 µM
- IC50 [10]: > 50 µM (not active)
- IC50 [11]: > 32 µM (inactive)
- IC50 [12]: 15 µM (active)

Compound: O=c1c(O)c(-c2ccc3c(c2)OCO3)oc2ccccc12
- EC50 [13]: > 85.3 µM (inactive)
- EC50 [14]: > 85.3 µM (inactive)
- EC50 [15]: 23.1 µM (active)
- CC50 [16]: > 40 µM (active)
- EC50 [17]: 41.7 µM (active)

Compound: O=C(NCc1ccco1)c1c2c(nc3ccccc13)CCC2
- IC50 [18]: > 50 µM (inactive)
- IC50 [19]: 5.65 µM (active)
- IC50 [20]: 4.33 µM (active)
- IC50 [21]: 16.4 µM (active)

Compound: O=C(/C=C/c1ccco1)c1ccc(NC(=O)C23CC4CC(CC(C4)C2)C3)cc1
- EC50 [22]: 55.5 µM (active)
- AC50 [23]: > 380 µM (inactive)
- IC50 [24]: 4.96 µM (active)

Compound: COc1ccc(Oc2c(C)cnn(-c3ccc(C(C)C)cc3)c2=O)cc1
- IC50 [25]: 9.8 µM (active)

Compound: CCOC(=O)N1CCN(C(=O)C2CCN(C(=O)Nc3ccccc3)CC2)CC1
- AC50 [26]: 136 µM (active)

Compound: COc1ccc(C(C)NC(=O)C2CCN(CCCc3ccccc3)CC2)cc1OC (centres undefined)
- AC50 [27]: 66.3 µM (active)

Compound: O=C(CCc1ccccc1)NCC(=O)N/N=C/c1ccc(O)cc1O
- EC50 [28]: > 55.7 µM (not active)
- EC50 [29]: > 55.7 µM (not active)
